Structures can show the parent of a compound that is named as a salt. Where two headings read alike, the source gives them in different places.

Experimental findings from US6046239A, “Anthranilic acid analogs” (American Home Products Corporation, priority 1998, dated 2000) are described below.

Experiment [1] has as its system Isolated Rat Bladder Strips. The experiment can be described thus: Inhibition of contractions in isolated rat bladder strips. The note with it: for IC50: contractions enhanced by additional 15 mM KCl, read-out: IC50 /μM Bladder (B); for IC50 (A)/ IC50 (B): ratio aorta/bladder, indication of selectivity. It is filed as cell-based. Here is the method: Sprague-Dawley rats (150-200 g) are rendered unconscious by CO2 asphyxiation and then euthanized by cervical dislocation. […] The bladder is opened and then cut into strips 1-2 mm in width and 7-10 mm in length. The strips are subsequently suspended in a 10 mL tissue bath under an initial resting tension of 1.5 g. The strips are held in place by two surgical clips one of which is attached to a fixed hook while the other is attached to an isometric force transducer. […] The carbachol is then washed out and the tissue allowed to relax to its resting level of activity. Following a further 30 min period of recovery an additional 15 mM KCl are introduced into the tissue bath. […] Following stabilization of this enhanced level of contractile activity, incremental increases in the concentration of test compound or vehicle are introduced into the tissue bath. Contractile activity is measured for each compound or vehicle concentration during the last minute of a 30 minute challenge.

Experiment [2] has as its system Aorta. Kind of experiment: Inhibition of contractions in aorta (indication of selectivity). The format is cell-based. The note with it: aorta.
The target in experiment [3] is T1, calcium-dependent large conductance potassium channels (maxi K^+) (Rattus norvegicus, UniProt Q62976).
T1 construct: endogenous in cells; host or cells: freshly isolated rat detrusor (urinary bladder smooth muscle) cells
T1 sequence (Q62976 whole entry): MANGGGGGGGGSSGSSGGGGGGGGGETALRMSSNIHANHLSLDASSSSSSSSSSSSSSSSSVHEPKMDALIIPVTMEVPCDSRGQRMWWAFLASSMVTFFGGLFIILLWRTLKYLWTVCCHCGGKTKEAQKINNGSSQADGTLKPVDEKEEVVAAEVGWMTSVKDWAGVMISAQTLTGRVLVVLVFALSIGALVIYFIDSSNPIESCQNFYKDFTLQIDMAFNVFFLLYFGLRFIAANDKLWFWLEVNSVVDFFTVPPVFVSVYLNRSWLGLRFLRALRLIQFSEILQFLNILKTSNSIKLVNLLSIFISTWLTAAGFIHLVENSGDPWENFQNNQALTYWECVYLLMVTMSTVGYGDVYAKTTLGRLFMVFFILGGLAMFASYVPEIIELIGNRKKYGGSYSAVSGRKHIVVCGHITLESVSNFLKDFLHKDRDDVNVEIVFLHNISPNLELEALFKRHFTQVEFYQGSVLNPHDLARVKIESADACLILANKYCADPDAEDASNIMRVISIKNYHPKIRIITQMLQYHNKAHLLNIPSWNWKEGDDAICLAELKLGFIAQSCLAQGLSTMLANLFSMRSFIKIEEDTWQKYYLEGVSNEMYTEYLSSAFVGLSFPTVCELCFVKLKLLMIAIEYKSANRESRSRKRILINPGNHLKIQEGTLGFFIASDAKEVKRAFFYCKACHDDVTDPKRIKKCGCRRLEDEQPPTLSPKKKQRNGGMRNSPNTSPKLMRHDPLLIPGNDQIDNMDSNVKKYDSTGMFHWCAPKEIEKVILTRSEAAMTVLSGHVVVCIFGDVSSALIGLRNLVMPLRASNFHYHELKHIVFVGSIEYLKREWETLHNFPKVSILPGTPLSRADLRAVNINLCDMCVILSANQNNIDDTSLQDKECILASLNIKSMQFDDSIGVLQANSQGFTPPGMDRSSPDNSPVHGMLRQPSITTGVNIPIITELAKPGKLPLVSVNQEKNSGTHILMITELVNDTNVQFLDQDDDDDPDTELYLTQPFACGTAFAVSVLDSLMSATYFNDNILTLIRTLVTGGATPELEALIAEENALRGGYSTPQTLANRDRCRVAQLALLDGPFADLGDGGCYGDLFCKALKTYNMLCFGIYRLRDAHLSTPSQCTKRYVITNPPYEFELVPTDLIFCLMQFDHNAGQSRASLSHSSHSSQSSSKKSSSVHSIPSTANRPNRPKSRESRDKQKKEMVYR
T1 sequence (P97678 whole entry partner): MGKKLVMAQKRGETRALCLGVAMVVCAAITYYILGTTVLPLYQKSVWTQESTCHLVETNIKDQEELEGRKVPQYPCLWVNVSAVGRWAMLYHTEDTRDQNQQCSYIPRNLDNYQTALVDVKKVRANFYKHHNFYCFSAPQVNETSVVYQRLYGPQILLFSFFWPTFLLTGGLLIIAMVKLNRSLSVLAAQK
Kind of experiment: Potassium channel activation, whole cell patch clamp in isolated rat detrusor cells. The format is cell-based. The note with it: glyburide 5 μM added to the superfusate; data not shown. Here is the method:
Potassium channel activation by compounds of the present invention was established by examining the effect of the compound of Example 1 on calcium-dependent large conductance potassium channels (maxi K^+) as follows:
Rat detrusor cells were isolated in a manner previously described for guinea-pig detrusor (Sheldon and Argentieri, 1995). Male Sprague-Dawley rats (200-400 grams) were euthanized by CO2 inhalation and exsanguination. Their urinary bladders were rapidly removed and placed in 37° C. physiological solution with the following composition (mM): Na glutamate (80.0), NaCl (54.7), KCl (5.0), NaHCO3 (25.0), MgCl2.2H2 O (2.5), D-glucose (11.8) and CaCl2 (0.2) gassed with CO2 --O2, 95%/5% for a final pH of 7.4. The dome of the bladder was isolated from the trigon region and the mucosa was removed. This tissue was then cut into 2-3 mm wide strips and placed in fresh buffer for 1 hour. Tissues were then transferred into 10.0 ml of an isolation buffer containing the above composition plus collagenase type VIII (1.0 mg/ml) and pronase (0.25 mg/ml). After 10 minutes the isolation buffer was replaced with fresh isolation buffer for an additional 10 min. […]
Whole cell recordings were made using broken patch assess. […] After stability was achieved control currents were recorded. […] Currents were recorded for 5 to 10 minutes or until compound effects reached steady state. […]
(In general: The patch-clamp technique gives a direct electrical read-out from membranes.)

In experiment [4] the test system is hypertrophied bladder (detrussor) smooth muscle. The experiment can be described thus: Inhibition of spontaneous contractions in vivo, hypertrophied rat bladder model. Conditions: 30 mg/kg i.v. The text has this: In addition, we tested the ability of compounds to inhibit the hyperactivity of hypertrophied bladder (detrussor) smooth muscle in conscious female rats with hypertrophied bladders and thereby alleviate urinary incontinence in rats according to the following protocol described by Malmgrem (A. Malmgrem, K. E. Andersson, C. Sjogren, P. O. Andersson, Effects of Pinacidil and Cromakalim (BRL 34915) on Bladder Function in Rats with Detrusor Instability, J. Urol. 142:1134, 1989.):
Female Sprague-Dawley rats, ranging in weight from 190-210 g are used. Up to 25 animals are prepared each time. After development of bladder hypertrophy 4-8 animals are used per test.
Compounds are dissolved in PEG-200 and administered by gastric gavage or intraveneously in a volume of 5 mL/kg. For primary screening all drugs are administered at the arbitrary dose of 10 mg/kg p.o. to groups of 4 rats.
The animals are anesthetized with halothane. […]
The following urodynamic variables are recorded:
The mean value of each variable is calculated before and after compound administration. For each compound the changes in the variables measured are compared to the values obtained before treatment and expressed as percent inhibition. The data are also subjected to 2-way analysis of variance to determine significant (p<0.05) changes in the variable measured. […]

The mark [5] stands for this setting: Rattus norvegicus, isolated rat bladder strips.
The mark [6] stands for this setting: isolated rat bladder strips, lithium salt hemihydrate.

Take `COc1ccc(NC(=O)/C(C)=C/c2ccc(C(F)(F)F)cc2)c(C(=O)O)c1` [Example 13, (E)-5-Methoxy-2-[2-methyl-3-(4-trifluoromethyl-phenyl)-acryloylamino]-benzoic acid]: the IC50 in experiment [1] (setting [5]) worked out at 9.6 ± 7.4 µM.

In the case of `O=C(/C=C/c1ccc(C(F)(F)F)cc1)Nc1ccccc1C(=O)O` [Example 5, (E)-2-[3[(4-Trifluoromethyl-phenyl)-acryloylamino]-benzoic acid lithium salt hemihydrate], the IC50 in experiment [1] (setting [6]) was found to be 5.3 ± 2.8 µM; in experiment [2] (lithium salt hemihydrate) it was 146 ± 49 µM. In addition, the “IC50 (A)/ IC50 (B)” value in experiment [1] (lithium salt hemihydrate) was 27.5.

As to `C=C(CC(=O)Nc1ccccc1C(=O)O)c1ccc(C(F)(F)F)cc1` [Example 6, 2-[3-(4-Trifluoromethyl-phenyl)-but-3-enoylamino]-benzoic acid], in experiment [1] (setting [5]), the IC50 was found to be 18.1 ± 4.2 µM.

Take `COc1ccc(Cl)cc1C(=O)NCCc1ccc(S(=O)(=O)NC(=O)NC2CCCCC2)cc1` [glyburide, reference compound]: the “effect of glyburide on outward current” value in experiment [3] was “no effect”.

For `C/C(=C\c1ccc(C(F)(F)F)cc1)C(=O)Nc1cc(Cl)ccc1C(=O)O` [Example 10, (E)-4-Chloro-2-[2-methyl-3-(4-trifluoromethyl-phenyl)-acryloylamino]-benzoic acid], the IC50 in experiment [1] (isolated rat bladder strips) is 1.44 ± 0.85 µM; in experiment [2], 6.93 ± 2.4 µM. Also, the “IC50 (A)/ IC50 (B)” value in experiment [1] worked out at 4.81.

For `C/C(=C\c1ccc(C(F)(F)F)cc1)C(=O)Nc1ccccc1C(=O)O` [Example 1, Step 3, (E)-2-[2-Methyl-3-(4trifluoromethyl-phenyl)-acryloylamino]-benzoic acid], the IC50 in experiment [1] (setting [5]) was 3.7 ± 2.1 µM; in experiment [2], 61.2 ± 9.2 µM. Further, in experiment [1], the “IC50 (A)/ IC50 (B)” value is 16.5.

Consider `O=C(/C=C/c1ccc(C(F)(F)F)cc1)Nc1ccccc1C(=O)O` [Example 4], for which the figures for the IC50 in experiment [1] (setting [5]) and in experiment [2] were 3.37 ± 0.59 µM and 39.5 ± 12 µM, respectively. Moreover, the “IC50 (A)/ IC50 (B)” value in experiment [1] turned out to be 11.7.

One may read the inhibition as how much of the control response was suppressed. On to `CCN(CC)C(=O)COC(=O)c1ccccc1NC(=O)/C(C)=C/c1ccc(C(F)(F)F)cc1` [Example 14, (E)-2-[2-Methyl-3-(4-trifluoromethyl-phenyI)-acryloylamino]-benzoic acid diethylcarbamoylmethyl ester], for which the inhibition at 30 µM in experiment [1] (30 μM, isolated rat bladder strips, read-out: I = Percent inhibition at 30 μM) came to 35.6 ± 5%. In experiment [1] (setting [5]), the IC50 worked out at 10.8 ± 0.6 µM.

Turning to `C/C(=C\c1ccc(C(F)(F)F)cc1)C(=O)Nc1ccc(Cl)cc1C(=O)O` [Example 8], the IC50 in experiment [1] (isolated rat bladder strips) was determined as 1.18 ± 0.45 µM; in experiment [2], 4.23 ± 0.66 µM. Moreover, in experiment [1], the “IC50 (A)/ IC50 (B)” value is 3.58.

Regarding `O=C(CCc1ccc(C(F)(F)F)cc1)Nc1ccccc1C(=O)O` [Example 2, 2-[3-(4-Trifluoromethyl-phenyl)-propionylamino]-benzoic acid], the IC50 amounted to 14.1 ± 1.77 µM in experiment [1] (setting [5]) and 118 ± 27.6 µM in experiment [2]. Further, the “IC50 (A)/ IC50 (B)” value in experiment [1] amounted to 8.4.

With `COc1ccc(/C=C/C(=O)Nc2ccccc2C(=O)O)cc1OC` [Tranilast, reference compound], the IC50 stood at 14.4 ± 4.5 µM in experiment [1] (setting [5]) and 15.6 ± 8.96 µM in experiment [2]. Further, the “smooth muscle relaxant potency and bladder selectivity” value in experiment [1] (bladder tissue over vascular tissue, Table 1) is listed as “not to be a potent or bladder selective smooth muscle relaxant”.

For `O=C(/C=C/c1ccc(Br)cc1)Nc1ccccc1C(=O)O` [Example 3, (E)-2-[3-(4-Bromo-phenyl)-acryloylamino]-benzoic acid], the IC50 in experiment [1] (setting [5]) turned out to be 4.9 ± 2.6 µM; in experiment [2], 53.5 ± 7 µM. Besides, in experiment [1], the “IC50 (A)/ IC50 (B)” value came out at 11.

Take `C/C(=C\c1ccc(C(F)(F)F)cc1)C(=O)Nc1ncccc1C(=O)O` [Example 12, (E)-2-[2-Methyl-3-(4-trifluoromethyl-phenyl)-acryloylamino]-nicotinic acid]: the IC50 in experiment [1] (setting [5]) stood at 11.4 ± 3.8 µM.

`C/C(=C\C(=O)Nc1ccccc1C(=O)O)c1ccc(C(F)(F)F)cc1` [Example 7, (E)-2-[3-(4-Trifluoromethyl-phenyl)-but-2-enoylamino]-benzoic acid sodium salt]: the IC50 in experiment [1] (isolated rat bladder strips) came to 7.4 ± 4 µM.

On to `C/C(=C\c1ccc(C(F)(F)F)cc1)C(=O)Nc1cc(Cl)ccc1C(=O)O` [Example 11, (E)-4-Chloro-2-[2-methyl-3-(4-trifluoromethyl-phenyl)-acryloylamino]-benzoic acid lithium salt hemihydrate], for which, in experiment [1] (setting [6]), the IC50 turned out to be 3.45 ± 0.75 µM.

As for `C/C(=C\c1ccc(C(F)(F)F)cc1)C(=O)Nc1ccc(Cl)cc1C(=O)O` [Example 9, (E)-5-Chloro-2-[2-methyl-3-(4-trifluoromethyl-phenyl)-acryloylamino]-benzoic acid lithium salt hemihydrate], the IC50 was determined as 0.52 ± 0.24 µM in experiment [1] (setting [6]) and 2.76 ± 1.63 µM in experiment [2] (lithium salt hemihydrate). Further, the “IC50 (A)/ IC50 (B)” value in experiment [1] (lithium salt hemihydrate) was determined as 5.31. For the same compound, the “% Red (F): percent reduction in the total number of spontaneous contractions” value in experiment [4] was -71 ± 6%.
